Consider one molecule from patent publication US4022912A, “Use of 1-decarboxy-1-hydroxymethyl-PGE1 in therapeutic bronchodilation” (priority 1976, dated 1977).

For test [1], the system named is Guinea Pig Tracheal Tissue. Put plainly: Relaxation of guinea pig tracheal tissue in vitro. It counts as cell-based. Conditions: Table B, standard error in parentheses. As to the method: Male guinea pigs weighing 200-500 g were killed by a blow on the head. A 20 mm length of trachea was dissected from each of the animals, transferred to a petri dish containing Krebs' solution aerated with 95% O2 and 5% CO2 at 37° C., and cut longitudinally opposite the tracheal muscle. The tissue was then cut transversely three quarters of the distance across; a second cut in the opposite direction again three quarters of the distance across the tissue was made, and the procedure was continued for the whole tissue. The ends of the trachea were pulled to form a zig-zag shaped strip. The tracheal strips used in the experiment were approximately 30 mm when extended under 0.25-0.5 g load in a tissue bath. Cotton thread was tied to one end of the tissues, and linen thread to the other. The tissues were attached via the linen thread to a glass hook in a 5 ml isolated tissue bath containing Krebs' solution at 37° C. aerated with a mixture of 95% O2 and 5% CO2. The opposite ends were attached via cotton thread to an isotonic transducer. The load on the transducer lever was small, usually 0.3 g, with a range of 0.25-0.5 g; and the magnification high, 80-fold using an appropriate twin-channel pen recorder. A minimum of thirty minutes was allowed before applying a drug to the tissues. Drugs were then applied (in volumes of 0.5 ml) at thirty minute intervals, being in contact with the tissue for five minutes followed by an overflow washout time of twenty seconds.

For test [2], the system named is Histamine-Induced Bronchoconstriction. Put plainly: Inhibition of histamine-induced bronchoconstriction in the anesthetized guinea pig in vivo by intravenous administration. Conditions: Cavia porcellus, iv, i.v. 15 seconds prior to histamine. As to the method:
(§1) Male albino guinea pigs (400-600 g; Dunkin-Hartley Strain) were anesthetized with pentobarbitone sodium (60 mg/kg intraperitoneally).
(§2) Trachea, external jugular vein and carotid artery were cannulated for recording ventilation, intravenous administration of drugs, and blood pressure respectively. The animals were artificially respired throughout the experiment. Electrocardiograms were also recorded. Respiratory flow was charted on a twin-channel recorder fixed to an SE differential pressure transducer.
(§3) Histamine was administered intravenously at 5 minute intervals. The test drug was administered intravenously 15 seconds prior to histamine in order to inhibit bronchoconstriction.

For test [3], the system named is tracheal smooth muscle. Particulars: isolated from a human; cited from earlier work.
The test system of a further test is bronchial smooth muscle. Conditions: by inhalation or intravenously; cited from earlier work.
The subject of test [4] is Histamine-Induced Bronchoconstriction. Put plainly: Inhibition of intravenous histamine-induced bronchoconstriction in the anesthetized guinea pig by inhalational administration. It counts as in vivo. Particulars: 0.001 μg/ml in stock solution aerosolized; inhalation. As to the method:
as §1, §2, §3
Details of the procedure of this example are the same as those in preceding Example 2 with the exception that the test compounds were delivered in aerosol form into the trachea of the test aminals.

The next test relates to bronchodilation. Conditions: inhalational administration to guinea pigs; cited from earlier work.
In test [5] the test system is tracheal smooth muscle. Particulars: isolated from a guinea pig; cited from earlier work.
Test [6] concerns Convulsions Induced by Inhaled Histamine. Put plainly: Delay of convulsions induced by inhaled histamine in conscious guinea pigs. The test is classed as in vivo, guinea pig. As to the method:
Conscious male albino guinea pigs (Dunkin-Hartley strain) weighing 200-300 g were placed (singly) in a 5-liter transparent chamber for 1 minute and subjected to an aerosol of vehicle or test drug in solution, plus histamine (1% w/v).
The time from the beginning of the administration of the aerosol to the start of the first convulsion (when the guinea pig is immediately removed from the aerosol) is the pre-convulsion time. Twenty-four hours later the general procedure was repeated. Guinea pigs treated with the test drug on the first day were treated with vehicle on the second day and vice versa in a cross-over design. Maximum time allowed in the aerosol was 10 minutes. An ultrasonic humidifier was used to produce the aerosol.

Like-named read-outs stand apart in the source and are kept apart here.

Regarding `CCCCC[C@H](O)/C=C/[C@H]1[C@H](O)CC(=O)[C@@H]1CCCCCCC(=O)O` [PGE1, 11α,15α-dihydroxy-9-oxo-13-trans-prostenoic acid], the “Relaxation (×80) (± S.E.)” value was 0 mm in test [1] (0.001 μg/ml); 24 (1) mm in test [1] (0.010 μg/ml); 46 (19) mm in test [1] (0.100 μg/ml); 75 (17) mm in test [1] (1.000 μg/ml); 75 (65) mm in test [1] (10.000 μg/ml). Also, the ED50 in test [2] (Experiment No. 1, read-out: Dose I.V. inhibiting bronchoconstriction by 50% (ID50)) came out at 0.603 µg/kg; in test [2] (Experiment No. 2, read-out: Dose I.V. inhibiting bronchoconstriction by 50% (ID50)), 0.966 µg/kg; in test [2] (Experiment No. 3, read-out: Dose I.V. inhibiting bronchoconstriction by 50% (ID50)), 0.263 µg/kg; in test [2] (Experiment No. 4, read-out: Dose I.V. inhibiting bronchoconstriction by 50% (ID50)) it was 0.864 µg/kg; in test [2] (Experiment No. 5, read-out: Dose I.V. inhibiting bronchoconstriction by 50% (ID50)), 0.202 µg/kg; in test [2] (mean of experiments 1-5, read-out: Dose I.V. inhibiting bronchoconstriction by 50% (ID50), Mean), 0.579 µg/kg. For the same molecule, the “relaxation of isolated tracheal smooth muscle” value in the test on tracheal smooth muscle [3] and in the test with tracheal smooth muscle [5] was “relaxes tracheal smooth muscle” throughout. The “relaxation of bronchial smooth muscle in vivo” value with bronchial smooth muscle is given as “relaxes bronchial smooth muscle in vivo”. In addition, the “Precent Inhibition of Histamine-Induced Bronchoconstriction” value in test [4] worked out at 6%. For the same molecule, in the test on bronchodilation, the “bronchodilation compared with isoprenaline” value is “superior to that induced by isoprenaline”. Moreover, the “Prolongation of Preconvulsion Time” value in test [6] (Expt. 1B, 0.50 μg/ml stock solution aerosolized, P <0.1) amounted to 77 s; in test [6] (Expt. 1B, 2.50 μg/ml stock solution aerosolized, P <0.001), 225 s; in test [6] (Expt. 1B, 5.00 μg/ml stock solution aerosolized, N.S. at P ≤ 0.05), 139 s; in test [6] (Expt. 1B, 10.00 μg/ml stock solution aerosolized, N.S. at P ≤ 0.05) it was 267 s; in test [6] (Expt. 2B, 0.10 μg/ml stock solution aerosolized, N.S. at P ≤ 0.05) it was 495 s; in test [6] (Expt. 2B, 0.50 μg/ml stock solution aerosolized, P <0.01) it was 274 s. Also, the “Prolongation of Preconvulsion Time” value was determined as 294 s in test [6] (Expt. 2B, 1.00 μg/ml stock solution aerosolized, P <0.01) and 664 s in test [6] (Expt. 2B, 5.00 μg/ml stock solution aerosolized, N.S. at P ≤ 0.05).
